From patent US5081225A, “Gram-positive and gram-negative antibacterial compounds from the microorganism, Janthinobacterium lividum” (E. R. Squibb & Sons, Inc., priority 1989, dated 1992)

Experiments:
Klebsiella aerogenes = assay: agar dilution MIC, aerobic organisms; details: Table 1; Klebsiella aerogenes SC 10440
Enterobacter aerogenes = assay: agar dilution MIC, aerobic organisms; details: Table 1; Enterobacter aerogenes SC 10078
[1] = tested on: Staphylococcus saprophyticus; assay: agar dilution MIC, aerobic organisms; details: Table 2; Staphylococcus saprophyticus SC 12875
[2] = stability under acidic conditions (observed during isolation); assay type: physicochemical
Protocol: The methanol extract is added to MCI GEL CHP20P™ (CHP20P) in water and the mixture is stirred for one hour. The charged resin is collected by vacuum filtration and washed with methanol, water, and acetonitrile. The charged resin is then packed in a column and the antibiotics are eluted with acetonitrile-water-formic acid. Further purification is achieved by chromatography on SEPHADEX LH-20™ in acetonitrile-water. Partial resolution of the three antibiotics, janthinocin A, B, and C, is effected by chromatography on CHP20P eluting with a gradient of acetonitrile-water-formic acid. Final separation and purification of janthinocins B and C is achieved by chromaography on CHP20P eluting with an acetonitrile-aqueous ammonium dihydrogen phosphate buffer gradient, followed by desalting on CHP20P, eluting with acetonitrile-water-formic acid, to give the pure antibiotics as off white powders. […] When janthinocin C is present, it co-elutes with janthinocin B in each of the initial chromatographies.

Citrobacter freundii = assay: agar dilution MIC, aerobic organisms; details: Table 1; Citrobacter freundii SC 9518
Proteus rettgeri = assay: agar dilution MIC, aerobic organisms; details: Table 1; Proteus rettgeri SC 8479
Enterobacter cloacae = assay: agar dilution MIC, aerobic organisms; details: Table 1; Enterobacter cloacae SC 8236
Staphylococcus aureus = assay: agar dilution MIC, aerobic organisms
Serratia marcescens = assay: agar dilution MIC, aerobic organisms; details: Table 1; Serratia marcescens SC 9783
Streptococcus faecalis = assay: agar dilution MIC, aerobic organisms
[3] = tested on: Staphylococcus epidermidis; assay: agar dilution MIC, aerobic organisms; details: Table 2
Bacillus subtilis = assay: agar dilution MIC, aerobic organisms; details: Table 2; Bacillus subtilis SC 3777
Pseudomonas aeruginosa = assay: agar dilution MIC, aerobic organisms; details: Table 1
Escherichia coli = assay: agar dilution MIC, aerobic organisms; details: Table 1
Nocardia asteroides = assay: agar dilution MIC, aerobic organisms; details: Table 2; Nocardia asteroides SC 2626
Micrococcus luteus = assay: agar dilution MIC, aerobic organisms; details: Table 1; Micrococcus luteus SC 2495
Klebsiella pneumoniae = assay: agar dilution MIC, aerobic organisms; details: Table 1; Klebsiella pneumoniae SC 9527
Streptococcus agalactiae = assay: agar dilution MIC, aerobic organisms
[4] = agar dilution MIC, aerobic organisms; details: Table 2; Nocardia monocytogenes SC 8523
Proteus mirabilis = assay: agar dilution MIC, aerobic organisms; details: Table 1; Proteus mirabilis SC 3855
Salmonella typhosa = assay: agar dilution MIC, aerobic organisms; details: Table 1; Salmonella typhosa SC 1195
Proteus vulgaris = assay: agar dilution MIC, aerobic organisms; details: Table 1; Proteus vulgaris SC 9416
Shigella sonnei = assay: agar dilution MIC, aerobic organisms; assay type: cell-based; details: Table 1; Shigella sonnei SC 8449
Excerpt: The composition of K-10 agar was:

[5] = tested on: Acinetobacter calcoaceticus; assay: agar dilution MIC, aerobic organisms; details: Table 1; Acinetobacter calcoaceticus SC 8333
[6] = Table 1, Staphylococcus aureus SC 1276
[7] = Table 1, Staphylococcus aureus SC 2399
[8] = Table 1, Staphylococcus aureus SC 2400
[9] = Table 1, Staphylococcus aureus SC 10165
[10] = Table 2, Staphylococcus aureus SC 2399 (Penicillin S)
[11] = Table 2, Staphylococcus aureus SC 2400 (Penicillin R)
[12] = Table 2, Staphylococcus aureus SC 3184 (Methicillin R)
[13] = Table 2, Staphylococcus aureus SC 9593 (Penicillin R)
[14] = Table 2, Staphylococcus aureus SC 9998 (Penicillin R)
[15] = Table 2, Staphylococcus aureus SC 10014 (Methicillin R)
[16] = Table 2, Staphylococcus aureus SC 10016 (Tetracycline R)
[17] = Table 2, Staphylococcus aureus SC 10020 (Methicillin R)
[18] = Table 2, Staphylococcus aureus SC 10820 (Erythromycin R)
[19] = Table 2, Staphylococcus aureus SC 11239 (Gentamicin R)
[20] = Table 2, Staphylococcus aureus SC 12691 (Erythromycin R)
[21] = Table 1, Streptococcus faecalis SC 9011
[22] = Table 2, Streptococcus faecalis SC 9011
[23] = Table 2, Streptococcus faecalis SC 9376
[24] = Table 2, Streptococcus faecalis SC 10938
[25] = Staphylococcus epidermidis SC 9052 (Penicillin S)
[26] = Staphylococcus epidermidis SC 9083 (Penicillin R)
[27] = Staphylococcus epidermidis SC 9087 (Penicillin R)
[28] = Staphylococcus epidermidis SC 9607 (Penicillin R)
[29] = Staphylococcus epidermidis SC 10547 (Penicillin R)
[30] = Table 1, Streptococcus agalactiae SC 9287
[31] = Table 2, Streptococcus agalactiae SC 9285
[32] = Table 2, Streptococcus agalactiae SC 9287

janthinocin A
MIC (Klebsiella aerogenes): 25 µg/mL
MIC (Enterobacter aerogenes): 25 µg/mL
MIC [1]: 0.8 µg/mL
chemical stability [2]: converted to janthinocin C under acidic conditions
MIC (Citrobacter freundii): 25 µg/mL
MIC (Proteus rettgeri): 50 µg/mL
MIC (Enterobacter cloacae): 25 µg/mL
MIC (Staphylococcus aureus; [6]): 0.8 µg/mL
MIC (Staphylococcus aureus; [7]): 1.6 µg/mL
MIC (Staphylococcus aureus; [8]): 1.6 µg/mL
MIC (Staphylococcus aureus; [9]): 1.6 µg/mL
MIC (Staphylococcus aureus; [10]): 0.8 µg/mL
MIC (Staphylococcus aureus; [11]): 0.4 µg/mL
MIC (Staphylococcus aureus; [12]): 1.6 µg/mL
MIC (Staphylococcus aureus; [13]): 0.8 µg/mL
MIC (Staphylococcus aureus; [14]): 0.8 µg/mL
MIC (Staphylococcus aureus; [15]): 0.4 µg/mL
MIC (Staphylococcus aureus; [16]): 0.2 µg/mL
MIC (Staphylococcus aureus; [17]): 0.4 µg/mL
MIC (Staphylococcus aureus; [18]): 0.8 µg/mL
MIC (Staphylococcus aureus; [19]): 0.8 µg/mL
MIC (Staphylococcus aureus; [20]): 0.4 µg/mL
MIC (Serratia marcescens): 25 µg/mL
MIC (Streptococcus faecalis; [21]): 1.6 µg/mL
MIC (Streptococcus faecalis; [22]): 0.8 µg/mL
MIC (Streptococcus faecalis; [23]): 0.8 µg/mL
MIC (Streptococcus faecalis; [24]): 1.6 µg/mL
MIC [3, 25]: 0.8 µg/mL
MIC [3, 26]: 0.8 µg/mL
MIC [3, 27]: 0.8 µg/mL
MIC [3, 28]: 0.4 µg/mL
MIC [3, 29]: 0.8 µg/mL
MIC (Bacillus subtilis): 0.4 µg/mL
MIC (Pseudomonas aeruginosa; Pseudomonas aeruginosa SC 8329): 100 µg/mL
MIC (Pseudomonas aeruginosa; Pseudomonas aeruginosa SC 9545): 50 µg/mL
MIC (Escherichia coli; Escherichia coli SC 8294): 25 µg/mL
MIC (Escherichia coli; Escherichia coli SC 10896): 6.3 µg/mL
MIC (Escherichia coli; Escherichia coli SC 10909): 6.3 µg/mL
MIC (Nocardia asteroides): 0.8 µg/mL
MIC (Micrococcus luteus): 0.2 µg/mL
MIC (Klebsiella pneumoniae): 25 µg/mL
MIC (Streptococcus agalactiae; [30]): 0.2 µg/mL
MIC (Streptococcus agalactiae; [31]): 0.4 µg/mL
MIC (Streptococcus agalactiae; [32]): 0.4 µg/mL
MIC [4]: 0.8 µg/mL
MIC (Proteus mirabilis): 100 µg/mL
MIC (Salmonella typhosa): 12.5 µg/mL

janthinocin C
MIC (Proteus vulgaris): > 100 µg/mL
MIC (Klebsiella aerogenes): 100 µg/mL
MIC (Enterobacter aerogenes): > 100 µg/mL
MIC (Shigella sonnei): 100 µg/mL
MIC (Citrobacter freundii): 100 µg/mL
MIC (Proteus rettgeri): > 100 µg/mL
MIC (Enterobacter cloacae): > 100 µg/mL
MIC (Staphylococcus aureus; [6]): 1.6 µg/mL
MIC (Staphylococcus aureus; [7]): 3.1 µg/mL
MIC (Staphylococcus aureus; [8]): 3.1 µg/mL
MIC (Staphylococcus aureus; [9]): 1.6 µg/mL
MIC (Serratia marcescens): > 100 µg/mL
MIC (Streptococcus faecalis; [21]): 12.5 µg/mL
MIC (Pseudomonas aeruginosa; Pseudomonas aeruginosa SC 8329): > 100 µg/mL
MIC (Pseudomonas aeruginosa; Pseudomonas aeruginosa SC 9545): > 100 µg/mL
MIC (Escherichia coli; Escherichia coli SC 8294): > 100 µg/mL
MIC (Escherichia coli; Escherichia coli SC 10857): 50 µg/mL
MIC (Escherichia coli; Escherichia coli SC 10896): 50 µg/mL
MIC (Escherichia coli; Escherichia coli SC 10909): 25 µg/mL
MIC (Micrococcus luteus): 1.6 µg/mL
MIC (Klebsiella pneumoniae): > 100 µg/mL
MIC [5]: 25 µg/mL
MIC (Streptococcus agalactiae; [30]): 0.8 µg/mL
MIC (Proteus mirabilis): > 100 µg/mL
MIC (Salmonella typhosa): 100 µg/mL

janthinocin B
MIC (Klebsiella aerogenes): 50 µg/mL
MIC (Enterobacter aerogenes): 50 µg/mL
MIC [1]: 0.4 µg/mL
MIC (Citrobacter freundii): 25 µg/mL
MIC (Proteus rettgeri): 100 µg/mL
MIC (Enterobacter cloacae): 50 µg/mL
MIC (Staphylococcus aureus; [6]): 0.4 µg/mL
MIC (Staphylococcus aureus; [7]): 1.6 µg/mL
MIC (Staphylococcus aureus; [8]): 1.6 µg/mL
MIC (Staphylococcus aureus; [9]): 0.8 µg/mL
MIC (Staphylococcus aureus; [10]): 0.4 µg/mL
MIC (Staphylococcus aureus; [11]): 0.8 µg/mL
MIC (Staphylococcus aureus; [12]): 0.4 µg/mL
MIC (Staphylococcus aureus; [13]): 0.4 µg/mL
MIC (Staphylococcus aureus; [14]): 0.1 µg/mL
MIC (Staphylococcus aureus; [15]): 0.4 µg/mL
MIC (Staphylococcus aureus; [16]): 0.4 µg/mL
MIC (Staphylococcus aureus; [17]): 0.4 µg/mL
MIC (Staphylococcus aureus; [18]): 0.2 µg/mL
MIC (Staphylococcus aureus; [19]): 0.2 µg/mL
MIC (Staphylococcus aureus; [20]): 0.4 µg/mL
MIC (Serratia marcescens): 50 µg/mL
MIC (Streptococcus faecalis; [21]): 1.6 µg/mL
MIC (Streptococcus faecalis; [22]): 1.6 µg/mL
MIC (Streptococcus faecalis; [23]): 1.6 µg/mL
MIC (Streptococcus faecalis; [24]): 0.8 µg/mL
MIC [3, 25]: 0.4 µg/mL
MIC [3, 26]: 0.4 µg/mL
MIC [3, 27]: 0.4 µg/mL
MIC [3, 28]: 0.4 µg/mL
MIC [3, 29]: 0.4 µg/mL
MIC (Bacillus subtilis): 0.1 µg/mL
MIC (Pseudomonas aeruginosa; Pseudomonas aeruginosa SC 8329): 100 µg/mL
MIC (Pseudomonas aeruginosa; Pseudomonas aeruginosa SC 9545): 50 µg/mL
MIC (Escherichia coli; Escherichia coli SC 8294): 25 µg/mL
MIC (Escherichia coli; Escherichia coli SC 10896): 6.3 µg/mL
MIC (Escherichia coli; Escherichia coli SC 10909): 6.3 µg/mL
MIC (Nocardia asteroides): 3.1 µg/mL
MIC (Micrococcus luteus): 0.2 µg/mL
MIC (Klebsiella pneumoniae): 25 µg/mL
MIC [5]: 25 µg/mL
MIC (Streptococcus agalactiae; [30]): < 0.05 µg/mL
MIC (Streptococcus agalactiae; [31]): < 0.05 µg/mL
MIC (Streptococcus agalactiae; [32]): < 0.05 µg/mL
MIC [4]: 1.6 µg/mL
MIC (Proteus mirabilis): 100 µg/mL
MIC (Salmonella typhosa): 12.5 µg/mL
